Entries after “also recorded” stand apart in the source; their conditions may differ. Positions of bridges follow the written chain, without caps; N, C: chain ends. Non-standard residues stand in square brackets, D forms with d. Residues, ends and D or L forms follow the SMILES beside them. ξ: configuration not given here. Thr(3ξ) = CC(O)[C@H](N)C(=O)O
How the values were obtained:
[1] = test system: blood-brain barrier (BBB); experiment: In vivo brain delivery of IRdye800CW-IgG mAb, NIRF quantification in brain homogenates; conditions: C57BL/6 mice
Experimental: The activity of each peptide in enhancing blood-brain barrier (BBB) penetration was evaluated by delivering IRdye800CW donkey anti-goat IgG mAb in C57BL/6 mice; the amounts of mAb in the brain were determined using NIRF imaging. Each group contained 3 mice per group (n=3) with a mixture of male and female mice, selected randomly for each arm of the study. The injection solution was prepared by adding 600 μL PBS into 0.5 mg lyophilized IgG mAb; then, approximately 1.5 mg lyophilized peptide was added into the mixture yielding the injectable formulation. A 100 μL solution of a mixture containing IgG mAb (21.6 nmol/kg) along with 13 μmol/kg peptide of the present technology was administered via tail vein. As a control, 100 μL of IgG mAb alone was administered via i.v. route. After the delivered molecules had been circulating for 15 min, the mice were sacrificed; then, a mixture of PBS with 0.5% Tween20 was administered for cardiac perfusion to remove the blood and […] molecules into the brain microvessels. The brain and other organs such as lung, heart, spleen, liver, and kidney were harvested and rinsed with PBS. The isolated organs were scanned with Odyssey® CLx for mAb quantification.
The brain deposition of IgG mAb was also quantified by NIRF imaging in brain homogenates. The isolated brains were mechanically homogenized in 2.0 mL of PBS. To make the standard solutions, IRDye800CW IgG mAb stock solution (70 μg/mL) was prepared; it was then diluted with various amounts of PBS to make six different mAb concentrations. To generate a calibration curve, the brain homogenate (200 μL) was aliquoted out to a 96-well plate. 10 μL of each concentration of IgG mAb was added to three different wells of blank brain homogenates. The standard spiked homogenates were at a range of 10-200 ng/mL IgG mAb in brain homogenate. The wells were scanned using the Odyssey® CLx scanner, and the signal intensities vs. concentrations of mAb per gram of brain were used to generate a calibration curve.
(§1) The BBB modulatory activities of ADTC5 and HAV6 to enhance brain delivery of IRdyeR800CW-labeled lysozyme, albumin, IgG mAb, and fibronectin were compared in C57BL/6 mice. The proteins with or without 13 μmol/kg HAV6 or ADTC5 were administered via tail vein injection. For lysozyme, the delivered doses were 21.6 and 54 nmol/kg. For albumin, IgG mAb, and fibronectin, the dose used was 21.6 nmol/kg. Fifteen minutes after IgG mAb administration with or without a peptide of the present technology, the animals were sacrificed and PBS with 0.5% Tween-20 was administered for cardiac perfusion to remove the remaining protein in the BBB microvessels. The brain and other organs such as lung, heart, spleen, liver and kidney were harvested and rinsed with PBS. Protein depositions in the brain and other organs were quantified by NIRF imaging using an Odyssey CLx NIRF scanner.
(§2) A second quantification method was done using brain homogenates. In this case, the brains were homogenized in 2.0 mL PBS by mechanical disruption and 200 μL of homogenized brain (n=8) was aliquoted to a 96-well plate followed by quantification using the Odyssey CLx scanner. The signal intensity was compared to calibration curve and normalized to brain weight and homogenate volume.

SJL/elite EAE mice = experiment: Suppression of EAE relapse, clinical scores; format: in vivo; conditions: BDNF 5.71 nmol/kg and/or ADTC5 10 μmol/kg i.v.
Experimental: EAE Mouse Model: EAE disease in animals (5-8-week-old SJL/elite female mice, Charles River) was stimulated by injecting 200 μg of PLP139-151 peptide in a 0.2 mL emulsion containing equal volumes of PBS and complete Freund's adjuvant (CFA) with killed mycobacterium tuberculosis strain H37RA (Difco, Detroit, Mich.; final concentration 4 mg/mL) as described in Kobayashi, N.; Kiptoo, P.; Kobayashi, H.; Ridwan, R.; Brocke, S.; Siahaan, T. J. Prophylactic and therapeutic suppression of experimental autoimmune encephalomyelitis by a novel bifunctional peptide inhibitor. Clin Immunol 2008, 129, (1), 69-79 and Kobayashi, N.; Kobayashi, H.; Gu, L.; Malefyt, T.; Siahaan, T. J. Antigen-specific suppression of experimental autoimmune encephalomyelitis by a novel bifunctional peptide inhibitor. J Pharmacol Exp Ther 2007, 322, (2), 879-86. Briefly, […] of PLP/CFA emulsion was administered to four different regions above the shoulders and the flanks on Day 0 followed by intraperitoneal injection of 200 ng of pertussis toxin (List Biological Laboratories, Campbell, Calif.) on Days 0 and 2. Clinical scores that reflect the disease progression were determined using an 11-point scale with 0.5 increments ranging from 0 to 5; 0 being no apparent disease and 5 being moribund. On Day 21, mice were randomly separated into […]: (i) BDNF (5.7 nmol/kg)+ADTC5 (10 μmol/kg; n=7), (ii) BDNF alone (5.71 nmol/kg, n=6), (iii) ADTC5 alone (10 μmol/kg; n=5), and (iv) vehicle (n=5). All mice received 8 intravenous injections every 4 days beginning on Day 21. The mice were euthanized via CO2 inhalation on Day 55. Area under the curve (AUC) calculations were used to compare clinical scores across groups; AUC calculations were performed using the trapezoid rule from Days 21 to 55.

[2] = test system: blood-brain barrier (BBB); experiment: Brain delivery of IRdye800CW-IgG mAb in SJL/elite mice, whole brain NIRF imaging; format: in vivo; conditions: IgG mAb 26.8 nmol/kg i.v. alone (n=4) or with ADTC5 13 μmol/kg (n=5), 15 min
Experimental: Brain Delivery IRdye800CW-labeled IgG mAb using ADTC5 in SJL/elite Mice. For initial evaluation of whether ADTC5 can deliver proteins into the brain, IRdye800CW donkey-anti-goat IgG mAb was administered via i.v. with and without ADTC5 peptide in 5-8-week-old SJL/elite mice. Two groups of healthy SJL/elite mice were injected with (a) a mixture of IgG mAb (26.8 nmol/kg) and ADTC5 peptide (13 μmol/kg) (n=5) and (b) IgG mAb alone (26.8 nmol/kg) (n=4). After 15 min in the systemic circulation, the mice were euthanized using CO2 inhalation followed by brain perfusion using PBS to remove the remaining protein in the BBB microvasculature. Next, the brains were isolated followed by NIRF imaging using Licor Odyssey CLx (Licor, Lincoln, Nebr.). Eight optical sections were taken at 0.5 mm increments beginning from the bottom surface of the brain to a depth of 4 mm. The optical sections were summed to yield a fluorescence intensity value per each brain.

[3] = test system: blood-brain barrier (BBB); experiment: In vivo brain delivery of IRdye800CW-lysozyme (15 kDa); parameters: species or system C57BL/6 mice
Experimental: Preparation of Stock and Standard Curves. The stock solution for IRDye800CW protein (i.e., lysozyme, 70 μg/mL) was prepared and stored at −80° C. The stock solution was later diluted with PBS to make the required standard solutions. To produce a standard calibration curve, 200 μL of blank brain homogenates was spiked with 10 μL standard solutions of various concentrations to yield a linear range from 0.5 to 50 ng/mL. The same method was employed for the sample's quality control (QC).
as §1, §2
(§3) Brain Perfusion. After euthanasia using CO2 chamber, mice were immediately subjected to cervical dislocation followed by removal of IRdye800CW-labeled protein from the brain capillaries using perfusion solution. In this case, a solution containing PBS with 0.2% Tween-20 was transcardially perfused to remove the remaining protein molecules in the brain endothelial microvessels. After perfusion, the brain was removed from the skull and subjected to capillary depletion.

[4] = test system: blood-brain barrier (BBB); experiment: In vivo brain delivery of IRdye800CW-albumin (65 kDa); conditions: IRdye800CW-albumin 21.6 nmol/kg i.v. alone or with 13 μmol/kg peptide; C57BL/6 mice
Experimental: as §1, §2, §3

[5] = test system: blood-brain barrier (BBB); experiment: In vivo brain delivery of IRdye800CW-fibronectin (220 kDa); parameters: species or system C57BL/6 mice
Experimental: as §1, §2, §3

[6] = IgG mAb 21.6 nmol/kg + 13 μmol/kg peptide i.v.

## CC(=O)N[C@H]1CSSC[C@@H](C(N)=O)NC(=O)[C@H](C(C)C)NC(=O)[C@@H]2CCCN2C(=O)[C@@H]2CCCN2C(=O)[C@H](C(C)O)NC(=O)[C@H](CC(=O)O)NC1=O (some centres unmarked) [ADTC5, cyclo(1,7)acetyl-CDTPPVC-NH2] (Ac-CD[Thr(3ξ)]PPVC-NH2; disulfide 1-7)
[1]; IRdye800CW-IgG mAb 21.6 nmol/kg i.v. alone or with 13 μmol/kg peptide, 15 min circulation, n=3
  average amount of IgG mAb in the brain: 13.3±0.7 pmol/g brain
[1]; [6]
  brain delivery of IgG mAb compared to control (IgG mAb alone): significantly better than in the PBS control; also recorded: significant difference
  enhancement of mAb brain deposition relative to control: about three times that of control
SJL/elite EAE mice; 8 injections
  locomotion / paralysis observed: partial or full hind leg paralysis and full tail paralysis
SJL/elite EAE mice; 8 injections every 4 days from day 21, compared with other groups/vehicle
  EAE clinical body scores: no significant difference
[2]
  whole brain NIRF signal of IRDye800CW-IgG mAb: significantly higher signal intensity
[3]; IRdye800CW-lysozyme 54 nmol/kg i.v. alone or with 13 μmol/kg peptide, C57BL/6 mice
  amount of lysozyme in the brain: 37.8±7.1 pmol/g brain
[3]; lysozyme 21.6 nmol/kg with 13 μmol/kg peptide
  brain delivery of lysozyme compared to lysozyme alone: no significant improvement
[4]
  amount of albumin in the brain: 40.7±7.4 pmol/g brain
[5]; IRdye800CW-fibronectin 21.6 nmol/kg i.v. alone or with ADTC5 13 μmol/kg
  NIRF signal of fibronectin in brain homogenates: 35.498±3.001 ×10^3 A.U.
[5]; fibronectin 21.6 nmol/kg with ADTC5 13 μmol/kg vs fibronectin alone
  brain delivery of 220 kDa fibronectin: did not enhance
